Experimental data: US20090123979A1, “Methods of reducing the inhibitory effect of a tannin on the enzymatic hydrolysis of cellulosic material” (Novozymes, Inc., priority 2007, published 2009)

Assays:
[1] = molecular target: T1, Aspergillus oryzae CEL3A beta-glucosidase (Aspergillus oryzae, UniProt Q2UUD6); experiment: Cellobiose hydrolysis by CEL3A beta-glucosidase with tannic acid; type: biochemical
T1 construct: made in house
Description: The effect of tannic acid on Aspergillus oryzae CEL3A beta-glucosidase was also evaluated using a series of “mini-scale” hydrolysis reactions according to the procedure described in Example 30, except that 1 mM tannic acid (corresponding to 10 mM galloyl and 1 mM glucosyl constituents) and 2 g of cellobiose and 1 mg of beta-glucosidase per liter of 39 mM sodium acetate pH 5.0 were used. Reactions without the addition of the tannic acid served as controls. The reaction was monitored by HPLC as described in Example 30.
Tannic acid was also evaluated in the hydrolysis of cellobiose.

[2] = tested on: T2, Cellulolytic Enzyme Composition #1; experiment: PCS hydrolysis by Cellulolytic Enzyme Composition #1 with added compounds; type: biochemical, Trichoderma reesei
T2 construct: other: PASC hydrolysis; mean ± SD; 0.01 g enzyme; Dixon plot linear regression intercept (1/Rate); other: AVICEL; rate from hydrolysis difference (%) at 0 and 6 hours; rate from hydrolysis difference; fused on or other part: The A. oryzae beta-glucosidase is the mature chain secreted behind the Humicola insolens endoglucanase V signal peptide, which is cleaved off
Description: Corn stover was pretreated at the U.S. Department of Energy National Renewable Energy Laboratory (NREL), […], Colo., USA, using dilute sulfuric acid. The following conditions were used for the pretreatment: 1.4 wt % sulfuric acid at 195° C. for 4.5 minutes. According to limit digestion with excess cellulase enzymes, the water-insoluble solids in the pretreated corn stover (PCS) contained 59.5% cellulose. Prior to use, the PCS was washed with a large volume of deionized water until soluble acid and sugars were removed. The dry weight of the water-washed PCS was 19.16%.
The effect of a mixture of tannic acid, ellagic acid, epicatechin, and six lignin constituent compounds (4-hydroxyl-2-methylbenzoic acid, vanillin, coniferyl alcohol, coniferyl aldehyde, ferulic acid, and syringaldehyde) was determined on the hydrolysis of PCS by Cellulolytic Enzyme Composition #1 or Cellulolytic Enzyme Composition #2. […] Cellulolytic Enzyme Composition #1 or Cellulolytic Enzyme Composition #2 was added at 0.25 g per liter. Reactions without the addition of the compounds served as controls. The capped tubes were incubated at 50° C. in an INNOVA® 4080 incubator shaker (New Brunswick Scientific Co., Inc., Edison, N.J., USA) at 150 rpm.
Aliquots of the suspensions, sampled over time, were filtered by centrifugation using a 0.45 μm MULTISCREEN® HV membrane (Millipore, Billerica, Mass., USA) at 2000 rpm for 15 minutes using a SORVALL® RT7 centrifuge (Thermo Fisher Scientific, Waltham, Mass., USA). When not used immediately, the filtered aliquots were frozen at −20° C. Sugar concentrations of the samples diluted in 0.005 M H2SO4 were measured after elution by 0.005 M H2SO4 at a flow rate of 0.4 ml/minute from a 4.6×250 mm AMINEX® HPX-87H column (Bio-Rad, Hercules, Calif., USA) at 65° C. with quantitation by integration of glucose and cellobiose using refractive index detection (CHEMSTATION®, AGILENT® 1100 HPLC, Agilent Technologies, Santa Clara, Calif., USA) calibrated with standards of glucose and cellobiose. The resultant equivalents were used to calculate the percentage of cellulose conversion for each reaction.
The degree of cellulose conversion to glucose plus cellobiose sugars (conversion, %) was calculated using the following equation:
Conversion(%)=(glucose+cellobiose×1.053)(mg/ml)×100×162/cellulose(mg/ml)×180)=(glucose+cellobiose×1.053)(mg/ml)×100/(cellulose(mg/ml)×1.111)
In this equation the factor 1.111 reflects the weight gain in converting cellulose to glucose, and the factor 1.053 reflects the weight gain in converting cellobiose to glucose. Cellulose in PCS was determined by a limit digest of PCS to release glucose and cellobiose.
Example 30 was repeated except that each compound was tested separately. […] Reactions without the addition of each compound served as controls.
The effect of OPC or flavonol on the hydrolysis of PCS by Cellulolytic Enzyme Composition #1 or Cellulolytic Enzyme Composition #2 was determined according to the procedure described in Example 30. OPC and flavonol were present at a concentration of 1 mM. Reactions without the addition of the compounds served as controls.
Methyl gallate and ellagic acid were compared at 10 mM to 1 mM tannic acid in the hydrolysis of PCS by Cellulolytic Enzyme Composition #1.

[3] = molecular target: T3, Trichoderma reesei CEL7B endoglucanase I (Trichoderma reesei, UniProt P07981); experiment: CMC hydrolysis by CEL7B endoglucanase I with tannic acid; type: biochemical; details: 1 mM tannic acid, 50° C., 4 hours
T3 construct: made in house; host or cells: Aspergillus oryzae JaL250
Description: (§1) The effect of tannic acid on Trichoderma reesei CEL7B endoglucanase I and Trichoderma reesei CEL5A endoglucanase II was also evaluated using carboxymethylcellulose (CMC) as substrate. The hydrolysis reactions were conducted in duplicate using the “mini-plate-scale” hydrolysis procedure described in Example 33, except that 1 mM tannic acid and 10 to 20 g of carboxymethylcellulose (CMC) and 1 to 20 mg of enzyme per liter 50 mM sodium acetate pH 5.0 were used at 50° C. for 4 hours. Soluble reducing sugars were analyzed by a p-hydroxybenzoic acid hydrazide (PHBAH) assay according to the method of Lever, 1972, Anal. Biochem. 47: 273-279, instead of by HPLC as described in Examples 30 and 33. Reactions without the addition of the enzymes served as controls to correct background absorption. Spectrophotometric measurements were performed using a SPECTRAMAX™ 340PC reader (Molecular Devices Corp., Sunnyvale, Calif., USA) with COSTAR® 96-well microplates (Cole-Parmer Instrument Co, Vernon Hills, Ill., USA).

[4] = molecular target: T4, Trichoderma reesei CEL5A endoglucanase II (Trichoderma reesei, UniProt P07982); experiment: PASC hydrolysis by CEL5A endoglucanase II with tannic acid; type: biochemical
T4 construct: made in house
Description: (§2) The inhibitory effect of tannic acid was determined on Trichoderma reesei CEL7A cellobiohydrolase 1, Trichoderma reesei CEL6A cellobiohydrolase II, Trichoderma reesei CEL7B endoglucanase 1, and Trichoderma reesei CEL5A endoglucanase II using PASC as substrate.
(§3) To quantify the inhibition, tannic acid was evaluated in the hydrolysis of PASC.

[5] = molecular target: T3, Trichoderma reesei CEL7B endoglucanase I; experiment: PASC hydrolysis by CEL7B endoglucanase I with tannic acid; type: biochemical
Description: as §2, §3

[6] = molecular target: T4, Trichoderma reesei CEL5A endoglucanase II; experiment: CMC hydrolysis by CEL5A endoglucanase II with tannic acid; type: biochemical; details: 1 mM tannic acid, 50° C., 4 hours
Description: as §1

[7] = 50 g PCS, 0.25 g enzyme per liter, methyl gallate and ellagic acid 10 mM, tannic acid 1 mM
[8] = 1 mM tannic acid, 2 g PASC per liter, over 4 hours
[9] = PASC, 0.1 to 0.7 mM tannic acid

T1 sequence (Q2UUD6 20-861): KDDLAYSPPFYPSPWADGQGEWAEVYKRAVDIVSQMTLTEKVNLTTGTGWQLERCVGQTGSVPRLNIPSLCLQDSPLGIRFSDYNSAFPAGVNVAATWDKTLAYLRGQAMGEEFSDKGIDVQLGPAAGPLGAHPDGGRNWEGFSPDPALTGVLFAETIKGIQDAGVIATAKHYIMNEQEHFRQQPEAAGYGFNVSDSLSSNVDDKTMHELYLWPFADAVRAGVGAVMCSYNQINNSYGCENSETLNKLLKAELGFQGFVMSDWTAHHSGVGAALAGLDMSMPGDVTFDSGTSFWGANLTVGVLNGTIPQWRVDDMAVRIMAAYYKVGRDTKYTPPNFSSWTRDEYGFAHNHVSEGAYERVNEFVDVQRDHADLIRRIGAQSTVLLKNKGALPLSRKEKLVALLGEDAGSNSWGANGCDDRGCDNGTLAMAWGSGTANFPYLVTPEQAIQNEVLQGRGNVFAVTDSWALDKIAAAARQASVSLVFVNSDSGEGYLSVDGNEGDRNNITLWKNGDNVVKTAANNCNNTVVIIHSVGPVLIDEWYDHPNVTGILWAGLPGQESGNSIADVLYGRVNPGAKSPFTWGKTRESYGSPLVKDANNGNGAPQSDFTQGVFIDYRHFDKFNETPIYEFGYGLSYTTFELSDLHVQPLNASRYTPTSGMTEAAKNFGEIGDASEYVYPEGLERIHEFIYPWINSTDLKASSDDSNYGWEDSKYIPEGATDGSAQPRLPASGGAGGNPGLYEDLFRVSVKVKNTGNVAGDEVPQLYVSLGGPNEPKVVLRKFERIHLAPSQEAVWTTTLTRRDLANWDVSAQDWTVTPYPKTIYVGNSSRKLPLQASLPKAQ
T3 sequence (P07981 23-459): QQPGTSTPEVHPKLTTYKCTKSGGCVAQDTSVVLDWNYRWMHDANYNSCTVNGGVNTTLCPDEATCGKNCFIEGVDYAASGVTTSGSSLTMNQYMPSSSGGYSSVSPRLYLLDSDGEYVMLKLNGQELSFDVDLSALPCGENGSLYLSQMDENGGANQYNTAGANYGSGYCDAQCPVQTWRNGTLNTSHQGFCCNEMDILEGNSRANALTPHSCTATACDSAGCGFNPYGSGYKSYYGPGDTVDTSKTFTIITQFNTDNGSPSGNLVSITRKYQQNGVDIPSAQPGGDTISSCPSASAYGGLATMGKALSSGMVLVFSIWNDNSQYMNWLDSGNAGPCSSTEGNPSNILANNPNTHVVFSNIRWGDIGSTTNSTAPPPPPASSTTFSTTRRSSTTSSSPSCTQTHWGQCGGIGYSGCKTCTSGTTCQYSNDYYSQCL
T4 sequence (P07982 22-418): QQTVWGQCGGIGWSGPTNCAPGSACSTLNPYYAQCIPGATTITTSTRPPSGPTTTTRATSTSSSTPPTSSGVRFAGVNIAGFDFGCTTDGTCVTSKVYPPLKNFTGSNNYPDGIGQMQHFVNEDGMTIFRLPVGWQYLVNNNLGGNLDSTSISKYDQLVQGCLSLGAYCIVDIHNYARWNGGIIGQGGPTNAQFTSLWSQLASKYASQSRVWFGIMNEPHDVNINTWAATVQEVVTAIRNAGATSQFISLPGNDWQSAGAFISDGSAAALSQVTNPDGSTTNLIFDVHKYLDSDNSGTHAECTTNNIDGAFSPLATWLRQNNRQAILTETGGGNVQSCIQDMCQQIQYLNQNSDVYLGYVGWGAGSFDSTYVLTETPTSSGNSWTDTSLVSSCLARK

O=C(OC[C@H]1O[C@@H](OC(=O)c2cc(O)c(O)c(OC(=O)c3cc(O)c(O)c(O)c3)c2)[C@H](OC(=O)c2cc(O)c(O)c(OC(=O)c3cc(O)c(O)c(O)c3)c2)[C@@H](OC(=O)c2cc(O)c(O)c(OC(=O)c3cc(O)c(O)c(O)c3)c2)[C@@H]1OC(=O)c1cc(O)c(O)c(OC(=O)c2cc(O)c(O)c(O)c2)c1)c1cc(O)c(O)c(OC(=O)c2cc(O)c(O)c(O)c2)c1 [tannic acid, Tannic acid]
effect on cellobiose hydrolysis by CEL3A beta-glucosidase ([1]; 1 mM tannic acid, 2 g cellobiose and 1 mg beta-glucosidase per liter): significantly inhibited
type of inhibition, CEL3A beta-glucosidase ([1]; cellobiose hydrolysis): mixed
IC50 ([1]; cellobiose hydrolysis, 0.001 g enzyme per liter, pH 5, 50° C., read-out: I50 for CEL3A beta-glucosidase): ~800 µM
effect on hydrolysis of PCS by Cellulolytic Enzyme Composition #1 ([2]; 1 mM each compound, 43.4 g PCS and 0.25 g enzyme per liter, pH 5.0, 50° C.): significantly inhibited
loss in initial rate of PCS hydrolysis [2, 7]: ~70%
loss in the extent of PCS hydrolysis at day 4 [2, 7]: ~60%
effect on CMC hydrolysis by CEL7B endoglucanase I [3]: significantly inhibited
effect on PASC hydrolysis by CEL5A endoglucanase II [4, 8]: significantly inhibited
IC50 ([4]; PASC hydrolysis, mean ± SD, 0.04 g enzyme per liter, pH 5, 50° C., read-out: I50 for CEL5A EGII): 320 ± 50 µM
type of inhibition (double reciprocal plots), CEL5A EGII [4, 9]: mixed
effect on PASC hydrolysis by CEL7B endoglucanase I [5, 8]: significantly inhibited
IC50 ([5]; PASC hydrolysis, mean ± SD, 0.04 g enzyme per liter, pH 5, 50° C., read-out: I50 for CEL7B EGI): 300 ± 200 µM
type of inhibition (double reciprocal plots), CEL7B EGI [5, 9]: mixed
effect on CMC hydrolysis by CEL5A endoglucanase II [6]: significantly inhibited
